Assay results taken from patent EP0028083A1, “Derivatives of clavulanic acid, a process for their preparation and pharmaceutical compositions containing them” (BEECHAM GROUP PLC, priority 1979, dated 1981).
Values after ≈ are worked out from the molar mass of the structure shown.

Assays:
Format in all cases: cell-based
E. coli JT39 [1] = experiment: MIC by standard microtitre technique, amoxycillin with and without compound
S. aureus Russell = experiment: as above
K. aerogenes E70 = experiment: as above
E. coli JT39 [2] = experiment: MIC by standard microtitre technique, ampicillin with and without inhibitor; conditions: dilution in trytone soy broth
Method: (§1) By a standard microtitre technique the MIC values for ampicillin alone, ampicillin and 9-(4-benzyl piperazinyldeoxyclavulanic acid and 9-(4-benzyl)piperazin -1-yldeoxyclavulanic acid alone were determined.

Kleb. aerogenes E70 = experiment: as above; conditions: dilution in trytone soy broth
Method: as §1

Staph. aureus Russell = experiment: as above; conditions: dilution in trytone soy broth
Method: as §1

[3] = Ampicillin + inhibitor at 1µg/ml
[4] = Ampicillin + inhibitor at 5µg/ml
[5] = Amoxycillin + compound, concentration of inhibitor 1.0 µg/ml
[6] = Amoxycillin + compound, concentration of inhibitor 5.0 µg/ml

| Structure (SMILES) | MIC (E. coli JT39 [1]; [5]) [µg/mL] | MIC (E. coli JT39 [1]; [6]) [µg/mL] | MIC (S. aureus Russell; [5]) [µg/mL] | MIC (S. aureus Russell; [6]) [µg/mL] | MIC (K. aerogenes E70; [5]) [µg/mL] | MIC (K. aerogenes E70; [6]) [µg/mL] | also measured |
| --- | --- | --- | --- | --- | --- | --- | --- |
| CC1(C)S[C@@H]2[C@H](NC(=O)[C@H](N)c3ccc(O)cc3)C(=O)N2[C@H]1C(=O)O [Amoxycillin, reference compound] | – | – | – | – | – | – | MIC (E. coli JT39 [1]; Amoxycillin alone): 500 µg/mL (≈ 1370 µM); MIC (S. aureus Russell; Amoxycillin alone): 500 µg/mL (≈ 1370 µM); MIC (K. aerogenes E70; Amoxycillin alone): 500 µg/mL (≈ 1370 µM) |
| CC1(C)S[C@@H]2[C@H](NC(=O)[C@H](N)c3ccccc3)C(=O)N2[C@H]1C(=O)O [Ampicillin, ampicillin, reference compound] | – | – | – | – | – | – | MIC (E. coli JT39 [2]; Ampicillin alone): >2000 µg/mL; MIC (Kleb. aerogenes E70; Ampicillin alone): 1000 µg/mL (≈ 2860 µM); MIC (Staph. aureus Russell; Ampicillin alone): 1000 µg/mL (≈ 2860 µM) |
| O=C(O)[C@H]1/C(=C/CN2CCN(Cc3ccccc3)CC2)O[C@@H]2CC(=O)N21 [Example 2, 9-(4-Benzylpiperazin-1-yl)deoxyclavulanic acid] | – | – | – | – | – | – | MIC (E. coli JT39 [2]; [3]): 62 µg/mL; MIC (E. coli JT39 [2]; [4]): 16 µg/mL; MIC (E. coli JT39 [2]; Inhibitor alone): >500 µg/mL; MIC (Kleb. aerogenes E70; [3]): 25 µg/mL; MIC (Kleb. aerogenes E70; [4]): 3.1 µg/mL; MIC (Kleb. aerogenes E70; Inhibitor alone): 500 µg/mL (≈ 1400 µM); MIC (Staph. aureus Russell; [3]): 0.3 µg/mL; MIC (Staph. aureus Russell; [4]): <0.01 µg/mL; MIC (Staph. aureus Russell; Inhibitor alone): 16 µg/mL (≈ 44.8 µM) |
| CCOC(=O)N1CCN(C/C=C2\O[C@@H]3CC(=O)N3[C@H]2C(=O)O)CC1 [Example 4, 9-(4-Ethoxycarbonylpiperazin-1-yl)deoxyclavulanic acid] | 31.2 | 4.0 | 1.25 | 0.3 | 6.2 | 1.5 | – |
| O=C(OCc1ccc([N+](=O)[O-])cc1)[C@H]1/C(=C/CN2CCSCC2)O[C@@H]2CC(=O)N21 [Example 8, p-Nitrobenzyl 9-(thiomorpholino)deoxyclavulanate] | 8.0 | 2.0 | 0.62 | – | 3.1 | 1.6 | – |
| O=C(O)[C@H]1/C(=C/CN2CCOCC2)O[C@@H]2CC(=O)N21 [Example 11, 9-(Morpholino)deoxyclavulanic acid] | 16.0 | 4.0 | 0.6 | 0.15 | 3.1 | 1.5 | – |
| CC1CN(C/C=C2\O[C@@H]3CC(=O)N3[C@H]2C(=O)O)CC(C)O1 (stereo partly shown) [Example 13, 9-(2,6-DimethyLmorpholino)deoxyclavulanic acid] | 31.2 | 4.0 | 1.25 | 0.3 | 6.2 | 1.5 | – |
| O=C(O)[C@H]1/C(=C/CN2CCN(c3ccccc3)CC2)O[C@@H]2CC(=O)N21 [Example 15, 9-(4-Phenylpiperazin-l-yl)deoxyclavulanic acid] | 31.2 | 4.0 | 0.16 | – | 12.5 | 6.2 | – |
